According to article PMC8449129, “Single tracer-based protocol for broad-spectrum kinase profiling in live cells with NanoBRET” (STAR Protocols, 2021):

Tests used:
[1] = target: T1, EPHA4 (Homo sapiens, UniProt P54764); test: NanoBRET target engagement, Tracer K10 displacement in live HEK293 cells; assay type: cell-based; settings: […] h, […] C, n = […]
T1 construct: full-length kinase, C-terminal NanoLuc fusion, transfected HEK293 cells

[2] = target: T2, EPHA6 (Homo sapiens, UniProt Q9UF33); test: as above; assay type: cell-based; settings: […] h, […] C, n = […]
T2 construct: full-length kinase, C-terminal NanoLuc fusion, transfected HEK293 cells
Excerpt: NanoBRET target engagement, Tracer K10 displacement in live HEK293 cells on EPHA6

[3] = target: BRSK2 (Homo sapiens, UniProt Q8IWQ3); test: cell-based; design: NanoBRET live-cell target engagement; % occupancy from displacement of tracer K10 on NanoLuc-kinase fusions, mean n=3; settings: HEK293, read-out: % inhibition
Protocol: (§1) • 18. Prepare 10× test compounds in OptiMEM • a. Dilute the test compound to 1000× in DMSO (or the test compound solvent). […] Add 10μL per well of 10× test compound or 10μL of the DMSO control to the 96-well plates containing cells with 1× tracer. Mix on orbital shaker for 15 s at 900 rpm. • 20. Incubate the plate at 37°C + 5% CO2 incubator for 2hr. Allow plate to cool to RT for ∼15 min, then proceed to NanoBRET^TM Assay section below. • 21. Immediately before the BRET measurements, prepare 3× Complete NanoBRET^TM Nano-Glo® Substrate in OptiMEM without serum or phenol red. […] Mix gently by inverting 5–10 times in a conical tube. (The final concentration of Extracellular NanoLuc inhibitor in the 3× solution is 60 μM, for a working concentration of 20 μM.) • a. Note: 3× solutions should be used within 1.5 h after preparation. • 22. […] Incubate 2–3 min at RT. Following addition of NanoBRET^TM Nano-Glo® Substrate, measure donor emission (e.g., 450 nm) and acceptor emission (e.g., 610 nm or 630 nm) using a NanoBRET™-compatible luminometer. Fractional occupancy Quantitation • 2. Determine Fractional Occupancy with the following equation; % Occupancy = [1 – (X – Z)/( Y – Z)]∗100 • Where: • X = BRET in the presence of the test compound and tracer, • Y = BRET in the presence of the 100% BRET Control (Tracer + DMSO) • Z = BRET for the Zero BRET Control, e.g., • a. BRET from the NanoLuc Control Vector • b. BRET from Kinase/NanoLuc fusion + saturating dose of control test compound.

[4] = target: CDK17 (Homo sapiens, UniProt Q00537); test: cell-based; design: NanoBRET live-cell target engagement; % occupancy from displacement of tracer K10 on NanoLuc-kinase fusions, mean n=3; settings: HEK293, read-out: % inhibition
Protocol: as §1

[5] = target: CDK4 (Homo sapiens, UniProt P11802); test: cell-based; design: NanoBRET live-cell target engagement; % occupancy from displacement of tracer K10 on NanoLuc-kinase fusions, mean n=3; settings: HEK293, read-out: % inhibition
Protocol: as §1

[6] = target: CDK6 (Homo sapiens, UniProt Q00534); test: cell-based; design: NanoBRET live-cell target engagement; % occupancy from displacement of tracer K10 on NanoLuc-kinase fusions, mean n=3; settings: HEK293, read-out: % inhibition
Protocol: as §1

[7] = target: CDKL3 (Homo sapiens, UniProt Q8IVW4); test: cell-based; design: NanoBRET live-cell target engagement; % occupancy from displacement of tracer K10 on NanoLuc-kinase fusions, mean n=3; settings: HEK293, read-out: % inhibition
Protocol: as §1

[8] = target: CDKL5 (Homo sapiens, UniProt O76039); test: cell-based; design: NanoBRET live-cell target engagement; % occupancy from displacement of tracer K10 on NanoLuc-kinase fusions, mean n=3; settings: HEK293, read-out: % inhibition
Protocol: as §1

[9] = target: CHEK2 (Homo sapiens, UniProt O96017); test: cell-based; design: NanoBRET live-cell target engagement; % occupancy from displacement of tracer K10 on NanoLuc-kinase fusions, mean n=3; settings: HEK293, read-out: % inhibition
Protocol: as §1

[10] = target: CLK4 (Homo sapiens, UniProt Q9HAZ1); test: cell-based; design: NanoBRET live-cell target engagement; % occupancy from displacement of tracer K10 on NanoLuc-kinase fusions, mean n=3; settings: HEK293, read-out: % inhibition
Protocol: as §1

[11] = target: MAP3K2 (Homo sapiens, UniProt Q9Y2U5); test: cell-based; design: NanoBRET live-cell target engagement; % occupancy from displacement of tracer K10 on NanoLuc-kinase fusions, mean n=3; settings: HEK293, read-out: % inhibition
Protocol: as §1

[12] = target: MAP4K1 (Homo sapiens, UniProt Q92918); test: cell-based; design: NanoBRET live-cell target engagement; % occupancy from displacement of tracer K10 on NanoLuc-kinase fusions, mean n=3; settings: HEK293, read-out: % inhibition
Protocol: as §1

[13] = target: MARK4 (Homo sapiens, UniProt Q96L34); test: cell-based; design: NanoBRET live-cell target engagement; % occupancy from displacement of tracer K10 on NanoLuc-kinase fusions, mean n=3; settings: HEK293, read-out: % inhibition
Protocol: as §1

[14] = target: NEK3 (Homo sapiens, UniProt P51956); test: cell-based; design: NanoBRET live-cell target engagement; % occupancy from displacement of tracer K10 on NanoLuc-kinase fusions, mean n=3; settings: HEK293, read-out: % inhibition
Protocol: as §1

[15] = target: PLK2 (Homo sapiens, UniProt Q9NYY3); test: cell-based; design: NanoBRET live-cell target engagement; % occupancy from displacement of tracer K10 on NanoLuc-kinase fusions, mean n=3; settings: HEK293, read-out: % inhibition
Protocol: as §1

[16] = target: PRKACA (Homo sapiens, UniProt P17612); test: cell-based; design: NanoBRET live-cell target engagement; % occupancy from displacement of tracer K10 on NanoLuc-kinase fusions, mean n=3; settings: HEK293, read-out: % inhibition
Protocol: as §1

[17] = target: RIOK2 (Homo sapiens, UniProt Q9BVS4); test: cell-based; design: NanoBRET live-cell target engagement; % occupancy from displacement of tracer K10 on NanoLuc-kinase fusions, mean n=3; settings: HEK293, read-out: % inhibition
Protocol: as §1

[18] = target: STK4 (Homo sapiens, UniProt Q13043); test: cell-based; design: NanoBRET live-cell target engagement; % occupancy from displacement of tracer K10 on NanoLuc-kinase fusions, mean n=3; settings: HEK293, read-out: % inhibition
Protocol: as §1

[19] = target: TEC (Homo sapiens, UniProt P42680); test: cell-based; design: NanoBRET live-cell target engagement; % occupancy from displacement of tracer K10 on NanoLuc-kinase fusions, mean n=3; settings: HEK293, read-out: % inhibition
Protocol: as §1

Sequence of CLK4 (Q9HAZ1 whole entry, the tested form may be a part): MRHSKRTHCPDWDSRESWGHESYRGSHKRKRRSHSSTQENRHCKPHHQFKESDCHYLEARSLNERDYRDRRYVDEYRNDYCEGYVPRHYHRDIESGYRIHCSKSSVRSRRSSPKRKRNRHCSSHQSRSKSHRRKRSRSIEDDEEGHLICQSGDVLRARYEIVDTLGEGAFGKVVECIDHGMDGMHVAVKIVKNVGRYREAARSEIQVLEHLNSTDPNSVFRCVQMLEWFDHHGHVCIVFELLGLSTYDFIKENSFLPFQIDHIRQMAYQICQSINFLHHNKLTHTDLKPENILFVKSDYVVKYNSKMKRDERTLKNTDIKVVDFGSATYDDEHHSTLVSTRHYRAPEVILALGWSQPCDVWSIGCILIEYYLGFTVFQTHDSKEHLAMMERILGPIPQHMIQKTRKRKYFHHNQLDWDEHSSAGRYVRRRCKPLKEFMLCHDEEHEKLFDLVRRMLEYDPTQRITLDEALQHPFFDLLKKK
Sequence of CHEK2 (O96017 whole entry, the tested form may be a part): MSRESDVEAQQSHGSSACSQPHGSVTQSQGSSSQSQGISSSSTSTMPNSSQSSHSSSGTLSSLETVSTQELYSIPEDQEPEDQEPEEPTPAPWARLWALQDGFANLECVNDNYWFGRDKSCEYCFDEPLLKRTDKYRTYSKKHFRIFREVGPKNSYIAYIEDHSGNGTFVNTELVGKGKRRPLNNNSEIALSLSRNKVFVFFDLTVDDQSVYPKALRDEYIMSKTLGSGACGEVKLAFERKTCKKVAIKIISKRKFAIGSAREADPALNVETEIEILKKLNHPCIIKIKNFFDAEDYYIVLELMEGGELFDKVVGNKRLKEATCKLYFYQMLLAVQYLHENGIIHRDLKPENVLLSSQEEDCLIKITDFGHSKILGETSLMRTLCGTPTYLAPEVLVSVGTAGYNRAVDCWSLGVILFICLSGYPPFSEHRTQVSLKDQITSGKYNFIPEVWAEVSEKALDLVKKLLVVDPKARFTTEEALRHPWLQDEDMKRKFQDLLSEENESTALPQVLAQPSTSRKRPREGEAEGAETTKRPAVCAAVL
Sequence of CDK6 (Q00534 whole entry, the tested form may be a part): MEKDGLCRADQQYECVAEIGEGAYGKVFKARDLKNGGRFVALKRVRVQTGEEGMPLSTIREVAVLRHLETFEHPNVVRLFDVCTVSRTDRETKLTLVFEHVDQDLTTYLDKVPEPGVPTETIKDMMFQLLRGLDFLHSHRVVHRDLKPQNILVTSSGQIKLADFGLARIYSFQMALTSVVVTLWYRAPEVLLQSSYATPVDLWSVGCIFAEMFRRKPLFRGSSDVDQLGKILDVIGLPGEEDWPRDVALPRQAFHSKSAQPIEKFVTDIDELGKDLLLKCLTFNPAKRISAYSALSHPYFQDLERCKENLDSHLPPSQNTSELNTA
Sequence of RIOK2 (Q9BVS4 whole entry, the tested form may be a part): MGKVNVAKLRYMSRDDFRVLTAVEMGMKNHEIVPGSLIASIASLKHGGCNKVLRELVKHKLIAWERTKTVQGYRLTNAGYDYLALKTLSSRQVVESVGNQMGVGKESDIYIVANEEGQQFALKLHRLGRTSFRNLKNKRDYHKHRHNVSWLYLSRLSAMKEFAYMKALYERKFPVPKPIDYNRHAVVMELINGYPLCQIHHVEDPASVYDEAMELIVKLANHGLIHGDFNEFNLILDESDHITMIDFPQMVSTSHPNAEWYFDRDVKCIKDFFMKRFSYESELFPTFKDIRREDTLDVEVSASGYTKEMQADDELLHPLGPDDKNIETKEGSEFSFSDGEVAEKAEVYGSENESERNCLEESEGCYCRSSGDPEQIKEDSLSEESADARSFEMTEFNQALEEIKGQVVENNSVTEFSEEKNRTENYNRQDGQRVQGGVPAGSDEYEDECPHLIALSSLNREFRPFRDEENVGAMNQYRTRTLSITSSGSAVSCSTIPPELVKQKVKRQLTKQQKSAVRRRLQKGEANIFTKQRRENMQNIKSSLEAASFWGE
Sequence of TEC (P42680 whole entry, the tested form may be a part): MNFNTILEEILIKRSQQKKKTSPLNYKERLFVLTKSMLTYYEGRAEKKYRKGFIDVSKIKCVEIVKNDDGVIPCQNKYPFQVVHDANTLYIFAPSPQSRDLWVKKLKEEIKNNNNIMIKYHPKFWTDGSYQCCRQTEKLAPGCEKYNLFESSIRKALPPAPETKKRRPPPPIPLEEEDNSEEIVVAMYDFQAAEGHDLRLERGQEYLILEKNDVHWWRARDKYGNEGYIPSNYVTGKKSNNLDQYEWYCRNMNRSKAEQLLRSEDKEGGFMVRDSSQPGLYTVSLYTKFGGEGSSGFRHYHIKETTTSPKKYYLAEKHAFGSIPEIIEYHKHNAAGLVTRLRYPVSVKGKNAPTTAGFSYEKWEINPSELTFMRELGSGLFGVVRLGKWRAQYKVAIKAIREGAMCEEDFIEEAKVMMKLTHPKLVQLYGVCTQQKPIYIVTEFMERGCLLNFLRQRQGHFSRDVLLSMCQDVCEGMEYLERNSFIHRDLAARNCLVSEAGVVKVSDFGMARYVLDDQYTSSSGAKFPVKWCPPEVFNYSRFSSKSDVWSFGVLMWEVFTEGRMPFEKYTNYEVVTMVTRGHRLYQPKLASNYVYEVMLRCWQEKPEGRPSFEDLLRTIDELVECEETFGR
Sequence of CDK17 (Q00537 whole entry, the tested form may be a part): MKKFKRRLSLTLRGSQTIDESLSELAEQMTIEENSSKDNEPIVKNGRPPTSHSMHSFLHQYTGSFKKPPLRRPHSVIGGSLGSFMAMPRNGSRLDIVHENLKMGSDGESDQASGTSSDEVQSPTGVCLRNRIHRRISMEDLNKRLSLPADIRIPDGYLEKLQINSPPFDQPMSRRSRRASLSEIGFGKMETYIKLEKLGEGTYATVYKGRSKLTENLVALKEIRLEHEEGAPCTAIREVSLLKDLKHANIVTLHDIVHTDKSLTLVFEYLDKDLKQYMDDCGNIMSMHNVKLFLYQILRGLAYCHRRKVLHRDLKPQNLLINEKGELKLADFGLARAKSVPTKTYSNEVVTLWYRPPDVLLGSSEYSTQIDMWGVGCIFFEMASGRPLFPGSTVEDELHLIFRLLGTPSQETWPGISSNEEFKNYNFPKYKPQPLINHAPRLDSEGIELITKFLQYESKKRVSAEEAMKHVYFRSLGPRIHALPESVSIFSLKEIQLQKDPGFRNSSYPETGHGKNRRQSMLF
Sequence of MAP3K2 (Q9Y2U5 whole entry, the tested form may be a part): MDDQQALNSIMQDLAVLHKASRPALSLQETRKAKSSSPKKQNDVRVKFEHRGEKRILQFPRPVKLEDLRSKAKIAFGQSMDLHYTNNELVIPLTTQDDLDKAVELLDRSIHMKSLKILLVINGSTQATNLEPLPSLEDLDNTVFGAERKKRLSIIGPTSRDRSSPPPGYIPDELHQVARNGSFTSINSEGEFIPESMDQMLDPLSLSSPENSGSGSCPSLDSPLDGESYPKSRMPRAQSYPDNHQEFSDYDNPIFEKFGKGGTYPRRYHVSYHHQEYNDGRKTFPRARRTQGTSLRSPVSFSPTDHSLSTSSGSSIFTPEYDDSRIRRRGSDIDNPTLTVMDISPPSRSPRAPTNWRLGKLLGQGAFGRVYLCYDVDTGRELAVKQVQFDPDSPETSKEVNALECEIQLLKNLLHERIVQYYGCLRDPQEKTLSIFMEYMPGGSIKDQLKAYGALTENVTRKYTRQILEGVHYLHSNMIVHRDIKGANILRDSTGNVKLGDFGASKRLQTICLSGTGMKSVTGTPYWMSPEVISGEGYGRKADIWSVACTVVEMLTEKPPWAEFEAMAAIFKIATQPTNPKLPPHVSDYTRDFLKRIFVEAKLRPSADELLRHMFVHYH
Sequence of STK4 (Q13043 whole entry, the tested form may be a part): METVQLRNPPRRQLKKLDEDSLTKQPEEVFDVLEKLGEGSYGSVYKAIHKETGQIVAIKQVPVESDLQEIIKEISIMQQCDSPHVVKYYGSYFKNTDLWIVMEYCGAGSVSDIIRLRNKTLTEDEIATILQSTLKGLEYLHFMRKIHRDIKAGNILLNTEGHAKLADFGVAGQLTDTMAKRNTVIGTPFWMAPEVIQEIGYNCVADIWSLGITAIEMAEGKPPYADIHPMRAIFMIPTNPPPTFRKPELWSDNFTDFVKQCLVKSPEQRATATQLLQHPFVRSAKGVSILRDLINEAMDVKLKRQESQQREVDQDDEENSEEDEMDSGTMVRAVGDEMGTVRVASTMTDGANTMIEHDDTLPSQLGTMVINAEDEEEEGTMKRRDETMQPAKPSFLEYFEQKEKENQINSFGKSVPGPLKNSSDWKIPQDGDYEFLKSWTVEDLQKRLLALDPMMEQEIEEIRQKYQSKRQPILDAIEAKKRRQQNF
Sequence of NEK3 (P51956 whole entry, the tested form may be a part): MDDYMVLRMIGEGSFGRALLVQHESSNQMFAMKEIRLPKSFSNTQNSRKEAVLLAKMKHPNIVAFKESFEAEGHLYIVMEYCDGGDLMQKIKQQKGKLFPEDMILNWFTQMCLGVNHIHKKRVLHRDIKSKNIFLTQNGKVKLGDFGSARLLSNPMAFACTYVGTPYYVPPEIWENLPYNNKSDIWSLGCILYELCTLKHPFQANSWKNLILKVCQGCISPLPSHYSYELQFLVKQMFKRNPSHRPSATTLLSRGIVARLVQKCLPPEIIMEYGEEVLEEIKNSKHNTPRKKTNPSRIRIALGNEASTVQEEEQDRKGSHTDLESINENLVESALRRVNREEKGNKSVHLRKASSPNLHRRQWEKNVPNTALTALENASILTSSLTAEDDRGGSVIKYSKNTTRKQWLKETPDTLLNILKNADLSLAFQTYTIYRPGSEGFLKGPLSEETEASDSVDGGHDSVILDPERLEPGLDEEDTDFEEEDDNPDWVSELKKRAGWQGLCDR
Sequence of CDK4 (P11802 whole entry, the tested form may be a part): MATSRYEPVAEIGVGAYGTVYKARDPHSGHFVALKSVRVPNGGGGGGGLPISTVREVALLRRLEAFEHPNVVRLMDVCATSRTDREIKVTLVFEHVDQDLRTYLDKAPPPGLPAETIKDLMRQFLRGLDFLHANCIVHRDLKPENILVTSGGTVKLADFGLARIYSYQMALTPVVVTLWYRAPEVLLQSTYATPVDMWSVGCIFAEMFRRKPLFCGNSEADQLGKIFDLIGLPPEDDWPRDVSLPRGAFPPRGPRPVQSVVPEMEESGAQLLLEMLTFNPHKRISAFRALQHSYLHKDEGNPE

C[C@@H](Oc1cc(-c2cnn(C3CCNCC3)c2)cnc1N)c1c(Cl)ccc(F)c1Cl [crizotinib]
Crizotinib % occupancy, 1 uM [1]: 53 ± 4.4%
Crizotinib % occupancy, 1 uM [2]: 64 ± 5.1%
inhibition at 1 µM [3]: 3%
inhibition at 1 µM [4]: 3%
inhibition at 1 µM [5]: 4%
inhibition at 1 µM [6]: 0%
inhibition at 1 µM [7]: 8%
inhibition at 1 µM [8]: 4%
inhibition at 1 µM [9]: 0%
inhibition at 1 µM [10]: -19%
inhibition at 1 µM [11]: 6%
inhibition at 1 µM [12]: 14%
inhibition at 1 µM [13]: -15%
inhibition at 1 µM [14]: -2%
inhibition at 1 µM [15]: 4%
inhibition at 1 µM [16]: -1%
inhibition at 1 µM [17]: 9%
inhibition at 1 µM [18]: 11%
inhibition at 1 µM [19]: -7%
